Test results from patent US20070249545A1, “DIHYDROFOLATE REDUCTASE INHIBITION BY EPIGALLOCATECHIN GALLATE COMPOUNDS” (priority 2004, published 2007).
Like-named read-outs stand apart in the source and are kept apart here.

Legend:
L1210 cells = assay: EGCG cytotoxicity / growth of L1210 cells; type: cell-based, mouse
Method: L1210 cells were plated at a density of 10,000 cells/ml in 96-well plates with a “standard folate” RPMI 1640 medium supplemented with 10% FCS. Reversion experiments were carried out in an HT medium and/or by adding 50 μM ascorbic acid (AA). Cell injury was evaluated by a calorimetric assay for mitochondrial function using the MTT test.^29
The effect of different EGCG concentrations on L1210 cell growth after 29 h of treatment at two different folic acid concentrations was determined. The cells were previously adapted over a period of 2-3 days to grow in folate-free RPMI 1640 medium supplemented with 10% dialyzed FCS and 2 mM glutamine. This medium is subsequently referred to as LF (low folate). For the cytotoxicity assay, the cells were grown in LF media supplemented with folic acid (3 μM or 300 nM). Treatments were carried out in triplicate, and each experiment performed at least twice. Cell growth was determined by two different methods, Coulter counter Z2 and hemocytometer (FIG. 7). IC50 values were determined at each folic acid concentration added to the medium.
The growth-inhibitory effects of 10 μM EGCG at various folic acid concentrations were determined at two different time intervals. L1210 cells were cultured in a LF medium supplemented with the corresponding folic acid concentration. The data were obtained by using a Coulter counter and hemocytometer and expressed assuming a zero percentage of growth inhibition for untreated control (FIG. 8). Cells were maintained in the corresponding medium with 100 μg/ml of penicillin and streptomycin at 37° C. in a humid 7.5% CO2, […] environment for all the experiments.

Caco-2 = assay: Growth of Caco-2 colon cancer cells; type: cell-based, human
Method: To determine whether EGCG inhibits DHFR activity in vivo, two human cancer cell, (Caco-2 from colon cancer and Jurkat T a lymphoma cell line) were incubated with various concentrations of EGCG in a standard medium.

NF-κB = assay: TNF-α-mediated activation of NF-κB (Western blot); type: cell-based; settings: 24 hours, then TNF-α, IκBα, phospho-IκBα, Akt
Method: To check if the antifolate activity of EGCG is related to the suppression of activation of NF-κB, cells were grown in the presence of EGCG or MTX. After 24 hours, the cells were induced with TNF-α and the content of proteins related to NF-κB activation (IκBα, phospho-IκBα, Akt and phosphor-Akt) was checked by Western blot (FIG. 16A).

S. maltophilia strain 1 = assay: Time kill assay for bactericidal and bacteriostatic effects; type: cell-based, Stenotrophomonas maltophilia
Method: A time kill assay was performed for strain 1. Glass tubes containing cation-adjusted Mueller-Hinton broth, with doubling antibiotic concentration were inoculated with 5×10^5 CFU/ml and were incubated at 37° C. for 24 h. Antibiotic concentrations were chosen to comprise three doubling dilutions above and two doubling dilutions below the broth dilution MIC. Inoculation of each serially diluted antibiotic tube was performed following NCCLS guidelines for broth dilution method. Viability counts of antibiotic-containing suspensions were carried out at 0, 3, 6, 12 and 24 h, by plating 10 μl aliquots of 10-fold dilutions from each tube in sterile saline onto Columbia agar supplemented with 5% of defibrinated sheep blood. The plates used to recover organisms were incubated for up to 24 h. The lower limit of sensibility of colony counts was 100 CFU/ml. Time kill assay results were analyzed by determining changes in the log10 CFU/ml compared to the counts at zero-time for the six different concentrations of EGCG. Bactericidal effect was defined at the lowest concentration that reduced the original inoculums by ≧3 log10 CFU/ml after a period of time and bacteriostatic if the inoculums was reduced by 0 to 3 log10 CFU/ml.

bovine liver DHFR = target: T1, bovine liver DHFR (Bos taurus, UniProt P00376); assay: Kinetic analysis of inhibition of bovine liver DHFR; type: biochemical
T1 construct: from tissue; host or cells: bovine liver
T1 sequence (P00376 1-187): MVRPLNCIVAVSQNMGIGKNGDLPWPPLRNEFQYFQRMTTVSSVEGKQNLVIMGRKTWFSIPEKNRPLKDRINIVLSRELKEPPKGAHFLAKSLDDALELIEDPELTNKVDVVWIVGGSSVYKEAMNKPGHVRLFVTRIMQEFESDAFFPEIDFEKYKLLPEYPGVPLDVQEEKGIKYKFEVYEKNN
Method: The activity of DHFR was determined at 25° C. by following the decrease of NADPH and DHF by absorbance measurements at 340 nm (ε=11,800 M^−1 cm^−1) by using a Perkin-Elmer Lambda-2 spectrophotometer with cuvettes of 1.0 cm light-path.
Experiments were performed at pH 7.58 and 25° C. in a buffer containing 2-(N-morpholino)ethanesulfonic acid (MES, 25 mM), sodium acetate (25 mM), tris(hydroxymethyl)aminomethane (Tris 50 mM), and NaCl (100 mM). To prevent the oxidation of catechins, the reaction mixture contained 1 mM ascorbic acid. The pH of the reaction was measured before and after of the experiment. The assays were started by the addition of enzyme. In the absence of the enzyme, the rate of change of absorbance was negligible. […]
Progress curves for the slow, tight-binding inhibition of bovine liver DHFR by EGCG were determined by continuously monitoring the disappearance of NADPH and DHF after initiation of the reaction by the addition of 3.3 nM enzyme. Reaction mixtures contained buffer, NADPH (100 μM), DHF (20 μM) and EGCG. Assuming that the concentration of free inhibitor is not substantially altered by the formation of an enzyme-NADPH-inhibitor complex, the progress curve for the inhibition in the presence of saturating NADPH is described by Eqn. (1): P=vst+(v0−vs)(1−exp(−k′t))/k′
where vs, v0 and k′ represent the steady-state velocity, initial velocity and apparent first-order rate constant, respectively.
The values of k′ at different EGCG concentrations were obtained by non-linear regression analysis of the progress curves. KI and KI* denote the respective dissociation constants for the initial and equilibrium binding of inhibitors to the enzyme-NADPH complex (FIG. 5).

urokinase = urokinase (Homo sapiens, UniProt P00749); settings: in vitro; cited from earlier work

Substance: (−)-epigallocatechin gallate [EGCG]
- growth inhibition in HT medium containing ascorbic acid, NAC or SOD (L1210 cells; L1210, EGCG 20 μM): completely removed the inhibitory effect
- growth inhibition with ascorbic acid in the medium (L1210 cells; L1210, EGCG 20 μM, antioxidant ascorbic acid): partially lifted
- growth inhibition in HT medium, low folate (L1210 cells; L1210, LF medium (30 nM folic acid), EGCG 1 μM): completely reversed
- growth inhibition in HT medium (L1210 cells; L1210, hypoxanthine-thymidine (HT) medium, EGCG 20 μM): high level of inhibition reversal
- IC50 (L1210 cells; RPMI 1640 medium with 10% FCS (standard folate)): 20 µM
- apoptosis (Caco-2): induction of apoptosis
- cell cycle effect (Caco-2): G0/G1 phase arrest
- effects in HT medium and in the presence of folinic acid or thymine (Caco-2): highly attenuated
- IC50 (Caco-2; standard medium, read-out: IC50 of cell growth): 30 µM
- effects on proteins related to NF-κB activation, with folinic acid (NF-κB): highly reversed by folinic acid
- regrowth (S. maltophilia strain 1; 64 μg/ml, after 12 h incubation): Regrowth was observed
- concentration with bactericidal effect (S. maltophilia strain 1; at 12 h): 4 times the MIC
- concentration with bacteriostatic effect (S. maltophilia strain 1; at 12 h): 2 times the MIC
- k5 (bovine liver DHFR): 0.13 min⁻¹
- k5/k6 (bovine liver DHFR): 32.5 ratio
- k6 (bovine liver DHFR): 0.004 min⁻¹
- type of inhibition (bovine liver DHFR): slow tight-binding inhibitor
- Ki (bovine liver DHFR; equilibrium binding to enzyme-NADPH complex, read-out: KI*): 0.0029 µM
- Ki (bovine liver DHFR; initial binding to enzyme-NADPH complex, pH 7.58, 25° C., read-out: KI): 0.109 µM
- concentration needed to inhibit urokinase activity (urokinase): 2 to 10 mM
